pKd: −log10 of the molar value. Starred links: 1 amine or outer side, 2 acyl side, 3 side chain; linkers in the order of their positions; H or OH if unused. Positions of bridges follow the written chain, without caps; N, C: chain ends. Non-standard residues stand in square brackets, D forms with d. Residues, ends and D or L forms follow the SMILES beside them. X1 = [N-]=[N+]=NCCOCCOCCNC(=N)NCCC[C@H](N[*:1])C(=O)[*:2]; Dip = N[C@H](C(=O)O)C(c1ccccc1)c1ccccc1
Tests used:
memAb anti-HER2 = test: SPR binding kinetics of meditope variants to immobilized memAb anti-HER2; conditions: n=1
Ile83Glu memAb anti-HER2 = test: SPR binding kinetics of meditope variants to immobilized Ile83Glu memAb anti-HER2
[1] = SPR Biacore T100, memAb on CM5 chip, HBS-EP+, 1:1 model, 25°C

ka (memAb anti-HER2; [1])	pKd (memAb anti-HER2; SPR, 25°C)	kd (memAb anti-HER2; SPR, 25°C) [s⁻¹]	Structure (SMILES)	also measured
2.8 M-1s-1 x 104	6.68	0.006	CC(=O)N[C@H]1CSSC[C@@H](C(=O)NCC(=O)NCC(=O)N[C@@H](CO)C(=O)N[C@@H](CCCCN)C(=O)O)NC(=O)[C@H](CCCNC(=N)N)NC(=O)[C@H](CC(C)C)NC(=O)[C@H](CCCNC(=N)N)NC(=O)[C@H](CCCNC(=N)N)NC(=O)[C@H]([C@@H](C)O)NC(=O)[C@H](CO)NC(=O)[C@H](CC(C)C)NC(=O)[C@H](CC(=O)O)NC(=O)[C@H](Cc2ccccc2)NC(=O)[C@H](CCC(N)=O)NC1=O	pKd (memAb anti-HER2; SPR, 37 °C): 6.46; ka (memAb anti-HER2; SPR, 37 °C): 7.5 M-1s-1 x 104; kd (memAb anti-HER2; SPR, 37 °C): 0.026 s⁻¹; pKd (Ile83Glu memAb anti-HER2; SPR, 25°C, n=1): 9.36; ka (Ile83Glu memAb anti-HER2; SPR, 25°C, n=1): 71 M-1s-1 x 104; pKd (Ile83Glu memAb anti-HER2; SPR, 37°C, n=4, mean (±SD)): 8.40; ka (Ile83Glu memAb anti-HER2; SPR, 37°C, n=4, mean (±SD)): 16 (±6) M-1s-1 x 104
1.8 M-1s-1 x 104	6.00	0.018	CC(C)C[C@@H]1NC(=O)[C@H](CCCNC(=N)N)NC(=O)[C@H](CCCNC(=N)N)NC(=O)[C@H]([C@@H](C)O)NC(=O)[C@H](CO)NC(=O)[C@H](CC(C)C)NC(=O)[C@H](CC(=O)O)NC(=O)[C@H](Cc2ccccc2)NC(=O)[C@H](CCC(N)=O)NC(=O)CCSSC[C@@H](C(=O)O)NC(=O)[C@H](CCCCN)NC1=O [(MPT) QFDLSTRRLKC]	–
0.92 M-1s-1 x 104	5.59	0.024	CC(C)C[C@@H]1NC(=O)[C@H](CCCNC(=N)N)NC(=O)[C@H](CCCNC(=N)N)NC(=O)[C@H]([C@@H](C)O)NC(=O)[C@H](CO)NC(=O)[C@H](CC(C)C)NC(=O)[C@H](CC(=O)O)NC(=O)[C@H](C(c2ccccc2)c2ccccc2)NC(=O)[C@H](CCC(N)=O)NC(=O)[C@@H](N)CSSC[C@@H](C(=O)O)NC(=O)[C@H](CCCCN)NC1=O	–
–	–	–	CC(=O)N[C@H]1CSSC[C@@H](C(=O)NCC(=O)NCC(=O)N[C@@H](CO)C(=O)N[C@@H](CCCCN)C(=O)O)NC(=O)[C@H](CCCNC(=N)N)NC(=O)[C@H](CC(C)C)NC(=O)[C@H](CCCNC(=N)N)NC(=O)[C@H](CCCNC(=N)NCCOCCOCCN=[N+]=[N-])NC(=O)[C@H]([C@@H](C)O)NC(=O)[C@H](CO)NC(=O)[C@H](C(c2ccccc2)c2ccccc2)NC(=O)[C@H](CC(=O)O)NC(=O)[C@H](Cc2ccccc2)NC(=O)[C@H](CCC(N)=O)NC1=O (Ac-CQFD[Dip]ST[X1]RLRCGGSK-OH; disulfide 1-12)	pKd (Ile83Glu memAb anti-HER2; SPR sensogram (Fig. 1c E83 / Supplementary Fig. 1a), 37 °C, n = 1): 8.68; half-life of the interaction (τ) (Ile83Glu memAb anti-HER2; SPR, 37 °C): 1.38 h
20 M-1s-1 x 104	7.40	0.008	CC(C)C[C@@H]1NC(=O)[C@H](CCCNC(=N)N)NC(=O)[C@H](CCCNC(=N)N)NC(=O)[C@H]([C@@H](C)O)NC(=O)[C@H](CO)NC(=O)[C@H](C(c2ccccc2)c2ccccc2)NC(=O)[C@H](CC(=O)O)NC(=O)[C@H](Cc2ccccc2)NC(=O)[C@H](CCC(N)=O)NC(=O)[C@@H](N)CSSC[C@@H](C(=O)O)NC(=O)[C@H](CCCCN)NC1=O [CQFDA(Ph)2STRRLKC]	–
2.1 M-1s-1 x 104	5.24	0.12	CC(C)C[C@@H]1NC(=O)[C@H](CCCNC(=N)N)NC(=O)[C@H](CCCNC(=N)N)NC(=O)[C@H]([C@@H](C)O)NC(=O)[C@H](CO)NC(=O)[C@H](CC(C)C)NC(=O)[C@H](CC(=O)O)NC(=O)[C@H](Cc2ccccc2)NC(=O)[C@H](CCC(N)=O)NC(=O)CCCCCCNC(=O)[C@H](CCCCN)NC1=O	–

Structure (SMILES)	ka (memAb anti-HER2; [1])	pKd (memAb anti-HER2; SPR, 25°C)	kd (memAb anti-HER2; SPR, 25°C) [s⁻¹]	also measured
CC(C)C[C@@H]1NC(=O)[C@H](CCCNC(=N)N)NC(=O)[C@H](CCCNC(=N)N)NC(=O)[C@H]([C@@H](C)O)NC(=O)[C@H](CO)NC(=O)[C@H](CC(C)C)NC(=O)[C@H](CC(=O)O)NC(=O)[C@H](Cc2ccc(Br)cc2)NC(=O)[C@H](CCC(N)=O)NC(=O)[C@@H](N)CSSC[C@@H](C(=O)O)NC(=O)[C@H](CCCCN)NC1=O	0.91 M-1s-1 x 104	5.33	0.042	–
CC(C)C[C@@H]1NC(=O)[C@H](CCCNC(=N)N)NC(=O)[C@H](CCCNC(=N)N)NC(=O)[C@H]([C@@H](C)O)NC(=O)[C@H](CO)NC(=O)[C@H](CC(C)C)NC(=O)[C@H](CC(=O)O)NC(=O)[C@H](Cc2ccc(O)cc2)NC(=O)[C@H](CCC(N)=O)NC(=O)[C@@H](N)CSSC[C@@H](C(=O)O)NC(=O)[C@H](CCCCN)NC1=O	2.8 M-1s-1 x 104	5.41	0.11	–
CC(C)C[C@@H]1NC(=O)[C@H](C)NC(=O)[C@H](CCCNC(=N)N)NC(=O)[C@H](CO)NC(=O)[C@H](CO)NC(=O)[C@H](CC(C)C)NC(=O)[C@H](CC(N)=O)NC(=O)[C@H](Cc2ccc(O)cc2)NC(=O)[C@H](CCC(N)=O)NC(=O)[C@@H](N)CSSC[C@@H](C(=O)O)NC(=O)[C@H](CCCCN)NC1=O	0.97 M-1s-1 x 104	5.47	0.033	–

Source: publication PMC5910394, “Mechanically interlocked functionalization of monoclonal antibodies” (Nature Communications, 2018)
